Patent US20120003661A1, “METHODS AND DEVICES FOR THE SELECTIVE DETECTION OF MICROORGANISMS” (C3 JIAN, INC., priority 2010, published 2012)
Entries after “also recorded” stand apart in the source; their conditions may differ.

Each substance was assayed on bacteria, fungi, and/or yeasts. Settings: microorganism(s) listed as target(s) of the targeting peptide; wrapped target lists given cell by cell.
Assay type: binding

Row | Substance | Target(s)
1 | PF-058 (FADQSQDNA) | S. epidermidis, M. luteus, E. coli,; also recorded: C. albicans, MRSA, C. jeikeium,; also recorded: C. jejuni
2 | PF-060 (HSSHL) | C. albicans hyphae; also recorded: E. coli, C. albicans, C. jeikeium
3 | PF-061 (GYNSYKAVQDVKTHSEEQRVTAKK) | S. epidermidis, S. pneumoniae
4 | PF-062 (MKKKRINNDILGRMIYSSSIDKRNLYNLKYYE) | S. epidermidis, M. luteus, E. coli,; also recorded: P. aeruginosa, MRSA, S. pneumoniae,; also recorded: E. faecalis, C. jeikeium
5 | PF-063 (IAAIIVLVLFQKGLLQIFNWILIQLQ) | S. epidermidis, M. luteus, E. coli,; also recorded: P. aeruginosa, MRSA, S. pneumoniae,; also recorded: E. faecalis, C. jeikeium,; also recorded: C. jejuni
6 | PF-064 (DYYGKE) | E. coli
7 | PF-065 (LEKNTRDNYFIHAIDRIYINTSKGLFPESELVAWG) | M. luteus, E. coli, P. aeruginosa,; also recorded: C. albicans, MRSA, S. pneumoniae,; also recorded: C. jeikeium, C. jejuni
8 | PF-066 (IKGTVKAVDETTVVITVNGHGTELTFEKPAIKQVDPS) | M. luteus, E. coli, C. jeikeium
9 | PF-067 (DLIVKVHICFVVKTASGYCYLNKREAQAAI) | S. epidermidis, M. luteus, P. mirabilis,; also recorded: E. coli, P. aeruginosa,; also recorded: C. albicans, MRSA, S. pneumoniae,; also recorded: E. faecalis, C. jeikeium,; also recorded: C. jejuni
10 | PF-068 (SHLINNFGLSVINPSTPICLNFSPVFNLLTVYGITCN) | S. epidermidis, M. luteus, P. mirabilis,; also recorded: E. coli, P. aeruginosa,; also recorded: C. albicans, MRSA, S. pneumoniae,; also recorded: E. faecalis, C. jeikeium
11 | PF-069 (FDPVPLKKDKSASKHSHKHNH) | E. faecalis, C. jejuni
12 | PF-070 (SMVKSEIVDLLNGEDNDD) | S. epidermidis, C. jejuni
13 | PF-071 (HCVIGNVVDIANLLKRRAVYRDIADVIKMR) | S. epidermidis, E. coli, P. aeruginosa,; also recorded: C. albicans, MRSA,; also recorded: S. pneumoniae, E. faecalis, C. jeikeium,; also recorded: C. jejuni
14 | PF-073 (CPSVTMDACALLQKFDFCNNISHFRHFFAIKQPIER) | S. epidermidis, M. luteus, P. aeruginosa,; also recorded: C. albicans, MRSA,; also recorded: S. pneumoniae, E. faecalis
15 | PF-074 (RDIHPIYFMTKD) | S. epidermidis, M. luteus, MRSA
16 | PF-075 (FVNSLIMKDLSDNDMRFKYEYYNREKDT) | M. luteus, E. coli, P. aeruginosa,; also recorded: MRSA, C. jeikeium
17 | PF-076 (LYQYELLSKEEYLKCTLIINQRRNEQK) | S. epidermidis, M. luteus, E. coli,; also recorded: P. aeruginosa, C. albicans,; also recorded: MRSA, S. pneumoniae, E. faecalis,; also recorded: C. jeikeium, C. jejuni
18 | PF-097 (QPTQGEQGTRPRRPTPMRGLLI) | C. jeikeium
19 | PF-099 (EIIAYLEGRFANA) | S. epidermidis, M. luteus, E. coli,; also recorded: C. jeikeium
20 | PF-101 (DPVPERQEQACACHRTAKPGK) | S. mutans
21 | PF-104 (ERTAVNDLWI) | MRSA, C. jeikeium
22 | PF-123 (TTRPQVAEDRQLDDALKETFPASDPISP) | M. luteus, E. coli
23 | PF-124 (MADGQIAAIAKLHGVPVATRNIRHFQSFGVELINPWSG) | S. epidermidis, M. luteus, P. mirabilis,; also recorded: E. coli, P. aeruginosa,; also recorded: C. albicans, MRSA, E. faecalis,; also recorded: C. jejuni
24 | PF-125 (YVVGALVILAVAGLIYSMLRKA) | S. epidermidis, M. luteus, P. mirabilis,; also recorded: E. coli, P. aeruginosa,; also recorded: C. albicans, MRSA, S. pneumoniae,; also recorded: E. faecalis, C. jejuni
25 | PF-126 (FSPEAFGIGAAGVLGSFVTGLLIGWVASLLRKAK) | S. epidermidis, M. luteus, P. mirabilis,; also recorded: E. coli, P. aeruginosa,; also recorded: C. albicans, MRSA, S. pneumoniae,; also recorded: E. faecalis, C. jeikeium,; also recorded: C. jejuni
26 | PF-127 (MLRYLSLFAVGLATGYAWGWIDGLAASLAV) | S. epidermidis, M. luteus, E. coli,; also recorded: P. aeruginosa, C. albicans,; also recorded: MRSA, S. pneumoniae, E. faecalis

Row | Substance | Target(s)
27 | PF-128 (GIKVVAARFEEIQFSENFDSIILA) | M. luteus, P. aeruginosa, E. faecalis
28 | PF-129 (MKLLARDPWVCAWNDIW) | S. epidermidis, MRSA, E. faecalis,; also recorded: C. jeikeium, C. jejuni
29 | PF-130 (LQRSDEESMPRRHEKYS) | E. faecalis, C. jeikeium, C. jejuni
30 | PF-131 (RRAAARTKGNRR) | S. epidermidis, E. coli, MRSA, C. jeikeium
31 | PF-132 (RPGDGAAEQGRSR) | S. epidermidis, C. jeikeium
32 | PF-133 (GDPTAGQKPVECP) | S. epidermidis, C. jeikeium, C. jejuni,; also recorded: M. smegmatis
33 | PF-134 (GKAMKRQDCSAL) | S. epidermidis, C. jeikeium
34 | PF-135 (PPARPARIPQTPTLHGASLFRQRS) | S. epidermidis, M. luteus, E. coli,; also recorded: P. aeruginosa, MRSA, C. jeikeium,; also recorded: M. smegmatis
35 | PF-136 (LRGRVGRITACGYPP) | S. epidermidis, M. luteus, P. mirabilis,; also recorded: E. coli, MRSA, E. faecalis,; also recorded: C. jeikeium, C. jejuni, M. smegmatis
36 | PF-137 (VLGKGHDLLDVGKTALKSRVFAWLGGS) | S. epidermidis, P. mirabilis, S. pneumoniae,; also recorded: C. jeikeium, C. jejuni
37 | PF-138 (AVHHSLLFR) | S. epidermidis, M. luteus, P. mirabilis,; also recorded: E. coli, C. albicans,; also recorded: MRSA, C. jeikeium, C. jejuni
38 | PF-139 (ALSKPAIQARTLCRRQDPP) | S. epidermidis, M. luteus, P. mirabilis,; also recorded: E. coli, P. aeruginosa,; also recorded: C. albicans, S. pneumoniae, E. faecalis,; also recorded: C. jeikeium, C. jejuni
39 | PF-140 (FHRRVIRASEWALTTRSFSTPLRSAAR) | S. epidermidis, M. luteus, P. mirabilis,; also recorded: E. coli, P. aeruginosa,; also recorded: C. albicans, MRSA, S. pneumoniae,; also recorded: E. faecalis, C. jeikeium,; also recorded: C. jejuni, M. smegmatis
40 | PF-141 (VVRRFQGM) | C. albicans hyphae; also recorded: S. epidermidis, M. luteus, C. albicans,; also recorded: MRSA, C. jeikeium
41 | PF-142 (GIDRGCQAAR) | S. mutans
42 | PF-143 (LSPRPIIVSRRSRADNNNDWSR) | S. epidermidis, MRSA, C. jeikeium
43 | PF-144 (RSGQPVGRPSRRAWLR) | S. epidermidis, M. luteus, E. coli,; also recorded: C. albicans, MRSA, S. pneumoniae,; also recorded: E. faecalis, C. jeikeium
44 | PF-145 (GIVLTGRAGLVSGACSMALGVGLG) | S. epidermidis, M. luteus, P. mirabilis,; also recorded: E. coli, P. aeruginosa,; also recorded: C. albicans, MRSA, S. pneumoniae,; also recorded: E. faecalis, C. jeikeium,; also recorded: C. jejuni, M. smegmatis
45 | PF-146 (GCGKRRIITKSASRDTR) | S. epidermidis, M. luteus, P. aeruginosa,; also recorded: C. albicans, MRSA,; also recorded: C. jeikeium
46 | PF-147 (RRPRRRRSGHGQSASAA) | S. epidermidis, M. luteus, MRSA
47 | PF-149 (GKVSVLTRVPRSLGGAPANQ) | S. epidermidis, M. luteus, E. coli,; also recorded: MRSA, C. jeikeium
48 | PF-150 (EIQAKGTG) | S. epidermidis, MRSA
49 | PF-151 (EEYPARVPLSGEDVTEARRH) | S. epidermidis, MRSA, E. faecalis,; also recorded: C. jeikeium
50 | PF-152 (VGYFIWKDSHSRKG) | S. epidermidis, C. albicans,; also recorded: MRSA, E. faecalis, C. jeikeium
51 | PF-153 (GILARADCSQIA) | M. luteus, P. mirabilis, E. coli, and MRSA
52 | PF-154 (GIKKSKHPSTDDYVVKTTIDSL) | S. mutans

Row | Substance | Target(s)
53 | PF-155 (GRYGDDSKERQGRAQ) | C. jeikeium
54 | PF-156 (LITAEQPATAPIAGK) | S. epidermidis, C. jeikeium
55 | PF-157 (HTAVVWLAGVSGCVALSHCEPA) | S. epidermidis, M. luteus, P. mirabilis,; also recorded: E. coli, P. aeruginosa,; also recorded: C. albicans, MRSA, S. pneumoniae,; also recorded: E. faecalis, C. jeikeium,; also recorded: C. jejuni
56 | PF-158 (VRLESRPADLPE) | S. epidermidis
57 | PF-159 (TMAFVEKAQLRVPVGDDLPV) | S. epidermidis
58 | PF-160 (SFHASLTKNEKPIKSTG) | S. epidermidis
59 | PF-161 (RGRALASTATTRPARRRR) | S. epidermidis, M. luteus, E. coli,; also recorded: C. jejuni
60 | PF-162 (GIRRLHSVENLNREISHRMAGLR) | S. epidermidis, MRSA
61 | PF-163 (TSWLRAAERQEIGEPTKTFGEKTTSL) | S. epidermidis
62 | PF-164 (EEVSRALAGIGLGLGCRIG) | S. epidermidis, M. luteus, E. coli,; also recorded: C. jeikeium
63 | PF-165 (GPVSVVASLRRGTTVQRHSQNNHNKGKP) | MRSA, C. jejuni
64 | PF-166 (SKAVSRKRSI) | E. coli, C. jeikeium
65 | PF-169 (APGSAADSPRSRADD) | S. epidermidis, E. coli, C. albicans,; also recorded: E. faecalis, C. jeikeium
66 | PF-171 (TQVTLCRTW) | S. epidermidis, E. coli, P. aeruginosa,; also recorded: S. pneumoniae
67 | PF-172 (LTGVRRPWRAPWAGTSGWALR) | S. epidermidis, M. luteus, E. coli,; also recorded: P. aeruginosa, MRSA, E. faecalis,; also recorded: C. jejuni
68 | PF-173 (AGRTAIVQGGG) | S. epidermidis, M. luteus, P. mirabilis,; also recorded: E. coli, P. aeruginosa,; also recorded: C. albicans, C. jeikeium, C. jejuni
69 | PF-174 (RGGDSPARRRPGLAGPGGPG) | S. epidermidis, P. aeruginosa, C. jeikeium
70 | PF-543 | C. albicans hyphae
71 | PF-617 (PMNAAEPE) | yeast and hyphal forms
72 | PF-621 (PPSSFLV) | yeast and hyphal forms
73 | PF-629 (GLAAIATVFALY) | yeast and hyphal forms
74 | PF-631 (LIIYFSKTGNTARATRQI) | yeast and hyphal forms
75 | PF-634 (MPKARPVNHNKKKSKITIKSNFTLFYMFNP) | C. albicans hyphae
76 | PF-636 (LVRLA) | C. albicans hyphae

Same assay, conditions: microorganism(s) that the targeting peptide binds, as listed in Table 2

Row | Substance | Target(s)
77 | PF-784 (MAMTTVDNIVGLVIAVALMAFLFAALLFPEKF) | Mycobacteria spp.
78 | PF-785 (MRPQHSPAGKAFVVKKITHEQS) | Mycobacteria spp.
79 | PF-786 (LSERERRRLKRGII) | Mycobacteria spp.
80 | PF-787 (MTERQRRALLKQHPEVVSWSDYLEKRKRRTGTAG) | Mycobacteria spp.
81 | PF-788 (GLITVFAGTARILQLRRAAKKTHAAALR) | Mycobacteria spp.
